Source: PMC7327145 (Biomolecules & Therapeutics, 2020)
Values joined by “and” are separate entries in the source; they are usually repeats but may differ in a detail not shown here. Equal entries are not always repeated. Where two headings read alike, the source gives them in different places.

Experiments:
[1] = intestinal microsomes
[2] = system: P-glycoprotein (P-gp); conditions: ref Hussa, 2014; cited from earlier work
[3] = Rat plasma protein binding by equilibrium dialysis; type: in vitro ADME; conditions: fresh plasma, pH 7.4, Plasma protein binding, range over control and SIDM rats
[4] = Tissue distribution of tofacitinib 30 min after intravenous administration; type: in vivo, rat; conditions: 30 min after intravenous 10 mg/kg, control and SIDM rats
[5] = hepatic microsomes, SIDM vs control
[6] = type: in vivo, rat; conditions: for CL renal: plasma and urine, CLR; for bioavailability: oral, F (bioavailability), oral 20 mg/kg vs intravenous 10 mg/kg
[7] = ref Lawendy et al., 2009; Dowty et al., 2014; cited from earlier work
[8] = type: in vivo, rat; conditions: for AUC / clearance / MRT / half-life / Vd: plasma; for clearance: CL; for half-life: Terminal half-life; for Vd: VSS
[9] = intravenous 10 mg/kg, SIDM rats
[10] = intravenous 10 mg/kg, SIDM vs control
[11] = intravenous 10 mg/kg, control rats
[12] = rat, iv, 10 mg/kg, control rats

C[C@@H]1CCN(C(=O)CC#N)C[C@@H]1N(C)c1ncnc2[nH]ccc12 [tofacitinib, 3-[(3R,4R)-4-methyl-3-[methyl-(7H-pyrrolo[2,3-day]pyrimidin-4-yl)amino]piperidin-1-yl]-3-oxopropanenitrile]
Km, SIDM vs control rats [1]: comparable
CLint faster in SIDM rats than control rats ([1]; SIDM vs control): 35.4%
P-glycoprotein (P-gp) substrate status [2]: substrate of P-glycoprotein
fraction unbound at 24 h, 10 µg/mL [3]: 0.769 to 0.781
Tissue distribution [4]: widely distributed
CLint faster in SIDM rats than control rats [5]: 112%
Km smaller in SIDM rats than control rats [5]: 44.3%
Ae0-24 h (dose excreted in urine for 24 h) ([6]; oral 20 mg/kg, SIDM rats): 6.94 ± 2.42 % of dose
GI24 h (dose remaining in the gastrointestinal tract at 24 h) ([6]; oral 20 mg/kg, SIDM rats, 20 mg/kg): 0.238 % of dose and 0.238 ± 0.160 % of dose
AUC lower in SIDM rats than control rats ([6]; oral 20 mg/kg, SIDM vs control): 55.5%
CLR higher in SIDM rats than control rats ([6]; oral 20 mg/kg, SIDM vs control): 145%
Cmax lower in SIDM rats than control rats ([6]; oral 20 mg/kg, SIDM vs control): 61.1%
Decrease of F (bioavailability) in SIDM rats vs control rats ([6]; oral 20 mg/kg, SIDM vs control, 20 mg/kg): 33%
Ae0-24 h (dose excreted in urine for 24 h) ([6]; oral 20 mg/kg, control rats): 7.98 ± 1.34 % of dose
GI24 h (dose remaining in the gastrointestinal tract at 24 h) ([6]; oral 20 mg/kg, control rats, 20 mg/kg): 0.177 % of dose and 0.177 ± 0.123 % of dose
CL renal ([6]; rat, po, 20 mg/kg, oral 20 mg/kg, SIDM rats): 21.7 ± 14.9 mL/min/kg
CL renal ([6]; rat, po, 20 mg/kg, oral 20 mg/kg, control rats): 8.86 ± 13.5 mL/min/kg
bioavailability ([6]; rat, plasma, 20 mg/kg, SIDM rats): 23.8%
bioavailability ([6]; rat, plasma, 20 mg/kg, control rats): 35.5%
AUC ([6]; rat, plasma, po, 20 mg/kg, oral 20 mg/kg, SIDM rats (n=7)): 1350 ng·h/mL
AUC ([6]; rat, plasma, po, 20 mg/kg, oral 20 mg/kg, control rats (n=8)): 3030 ng·h/mL
Cmax ([6]; rat, plasma, po, 20 mg/kg, Cmax, oral 20 mg/kg, SIDM rats): 680 ± 360 ng/mL
Tmax ([6]; rat, plasma, po, 20 mg/kg, oral 20 mg/kg, SIDM rats): 25.7 min
Tmax ([6]; rat, plasma, po, 20 mg/kg, oral 20 mg/kg, control rats): 17.9 min
Terminal half-life [7]: approximately 3.3 h
Ae0-24 h (dose excreted in urine for 24 h) [8, 9]: 6.64 ± 1.65 % of dose
CLNR [8, 9]: 55.5 ± 9.79 mL/min/kg
CLR estimated from the free (unbound to plasma proteins) fraction [8, 9]: 6.15 mL/min/kg
Contribution of CLR to CL [8, 9]: 7.97%
AUC smaller in SIDM rats than control rats [8, 10]: 33.6%
CL higher in SIDM rats than control rats [8, 10]: 51.1%
CLNR higher in SIDM rats than control rats [8, 10]: 43.8%
CLR higher in SIDM rats than control rats [8, 10]: 87.5%
Vss greater in SIDM rats than control rats [8, 10]: 262%
Ae0-24 h (dose excreted in urine for 24 h) [8, 11]: 6.99 ± 2.30 % of dose
CLNR [8, 11]: 38.6 ± 8.04 mL/min/kg
CLR estimated from the free (unbound to plasma proteins) fraction [8, 11]: 3.33 mL/min/kg
Contribution of CLR to CL [8, 11]: 6.42%
CL renal ([8]; rat, plasma and urine, iv, 10 mg/kg, CLR, control rats): 2.56 ± 0.59 mL/min/kg
AUC ([8]; rat, iv, 10 mg/kg, SIDM rats (n=7)): 2830 ng·h/mL
AUC ([8]; rat, iv, 10 mg/kg, control rats (n=9)): 4270 ng·h/mL
clearance ([8]; rat, iv, 10 mg/kg, SIDM rats): 60.3 ± 11.1 mL/min/kg
clearance [8, 12]: 39.9 ± 6.74 mL/min/kg
MRT ([8]; rat, iv, 10 mg/kg, SIDM rats): 44.3 min
MRT [8, 12]: 21.3 min
half-life ([8]; rat, iv, 10 mg/kg, SIDM rats): 26.5 ± 2.81 min
half-life [8, 12]: 30.2 ± 4.83 min
Vd ([8]; rat, iv, 10 mg/kg, SIDM rats): 3.56 ± 2.38 L/kg
Vd [8, 12]: 0.986 ± 0.379 L/kg
